Measured values from ChEMBL document CHEMBL1130614, “Design and synthesis of a pyridone-based phosphotyrosine mimetic” (Bioorg Med Chem Lett, 1998).

How the values were obtained:
[1] = Inhibition of CD19 phosphopeptide binding to p85 N-terminal SH2 domain at 50 uM.
[2] = Inhibition of CD19 phosphopeptide binding to p85 N-terminal SH2 domain at 20 uM.
[3] = target: Platelet-derived growth factor receptor (Homo sapiens, UniProt P09619+P16234); assay: Inhibition of PDGF-beta receptor binding to p85 SH2-domain; assay type: protein-complex assay

| Compound | inhibition [1] [%] | inhibition [2] [%] | IC50 [3] [nM] |
| --- | --- | --- | --- |
| CCCCN(CCCC)C(=O)[C@H](C)NC(=O)[C@@H](NC(=O)[C@H](Cc1ccn(CP(=O)(O)O)c(=O)c1)NC(C)=O)C(C)C | 50 |  |  |
| CCCCN(CCCC)C(=O)[C@H](C)NC(=O)[C@@H](NC(=O)[C@H](Cc1ccc(OP(=O)(O)O)cc1)NC(C)=O)C(C)C |  | 98 | 77 |
